Source: patent US20230000924A1, “COMPOSITIONS AND METHODS FOR GENERATION OF SINOATRIAL NODE-LIKE CELLS AND THEIR USE IN DRUG DISCOVERY” (Cornell University, priority 2019, published 2023)
Entries after “also recorded” stand apart in the source; their conditions may differ.

How the values were obtained:
A549 xenograft tumors = experiment: A549 xenograft mouse model; type: in vivo; details: IP once a week for two weeks; for tumor burden / growth (tumor wt. and volume), single agent: 4 mg/kg
Protocol: FIG. 18. […] We tested the effects of Doxorubicin and Physcion using an A549 xenograft mouse model. Mice with A549 xenograft tumors were treated with vehicle, Doxorubicin, Physcion, or Doxorubicin plus Physcion. Doxorubicin and Physcion treatment was administered by IP injection once a week for two weeks, at a concentration of 4 mg/kg wt for both compounds.

hPSC-SAN cells = experiment: Chemical screen and validation for rescue of DOXO toxicity in hPSC-SAN cells; type: cell-based, human
Protocol: The fold change was calculated by dividing the percentage of cleaved caspase-3^+ cells in GFP^+ or mCherry^+ cells in the DOXO-treated condition by the percentage of cleaved caspase-3^+ cells in GFP^+ or mCherry^+ cells in the DMSO-treated condition (n=10); b, Sensitivity of day 30 hiPSC-SAN cells derived from 48 hiPSC lines upon DOXO treatment. […] The fold change was calculated by dividing the percentage of cleaved caspase-3^+ cells in ISL1^+ cells in the DOXO-treated condition by the percentage of cleaved caspase-3^+ cells in ISL1^+ cells in the DMSO-treated condition. […] Data were normalized to non-DOXO treated cells (n=4). h, Quantification of cell toxicity on hPSC-SAN cells derived from sensitive iPSC lines after co-treatment with DOXO and either 10 μM physcion (n=3) or DMSO (n=4). *p<0.05 **p<0.01. t-test. Data are mean±s.e.m. Data were normalized to non-DOXO treated cells.
Day 35 cells were treated for 3 days with DOXO and small molecules.
1472 compounds were tested consisting of FDA-approved drugs and natural products. Hit targets were selected based on a reduced percent ratio of GFP^+ cleaved caspase-3^+/GFP^+ cells (FIG. 11a). The compounds that decreased the cell death rate by more than two-fold of the standard deviation below the average of DMSO-treated samples were selected as primary hits. […]

murine SAN = experiment: Ex vivo murine atrial explants (SAN cell death, contraction rhythmicity)
Protocol: FIG. 15. […] Quantification of contraction rhythmicity of explants was calculated by the COV as described above.
FIG. 16. […] Quantification of contraction rhythmicity of explants was calculated by the COV as described above.
Thus, we used an ex vivo model to document the direct effect of Doxorubicin and Physcion on the murine SAN. Whole, intact atrial explants were incubated with 1 μM doxorubicin or 1 uM doxorubicin+20 μM Physcion for 3 hrs.

[1] = test system: A549 human epithelial lung cancer cells; experiment: Chemotherapeutic effect on A549 cells in culture; type: cell-based; details: 72 hrs
Protocol: FIG. 17. […] We tested the effects of Physcion and Physcion+Doxorubicin on A549 human epithelial lung cancer cells grown in culture. 5×10^4 cells were treated with varying doses of Doxorubicin and Physcion for 72 hrs.

SHOX2:GFP+ cells = experiment: Epigenetic library screen for SHOX2:GFP+ cells; type: cell-based, human; details: condition 8, compound added at day 7, after 14 days of differentiation
Description: To quantify and purify SAN-like cells using this directed differentiation protocol, a dual knock-in SHOX2:GFP; MYH6:mCherry reporter line was created using CRISPR/Cas-based gene-targeting techniques (FIG. 6b). Immunofluorescence and FACS analyses confirmed the success of the protocol for generating putative hPSC-SAN cells, as condition 8 maximizes generation of SHOX2:GFP^+ cells (FIG. 1c, d). The sorted GFP^+ cells were enriched approximately 4000-fold for SHOX2 transcript levels compared to GFP^− cells (FIG. 1e), and most of the GFP^+ cells co-express ISL1 and HCN4, proteins closely associated with the development and function of SAN cells (FIG. 6b). To further enhance production of GFP^+ cells, we considered that SAN development may also be controlled epigenetically and performed an unbiased screen using a library of known epigenetic modulatory compounds. Cells were differentiated using condition 8 with compounds added at day 7 (FIG. 1f and FIG. 6c).
Pacemaker and cardiomyocyte induction. Differentiation was initiated 72 hours after plating when the culture was approximately 80% confluent. Step 1: Cells were differentiated with 1.5 μM CHIR99021 (CHIR, Stem-RD, Ch), 20 ng/mL BMP4 (B) and 20 ng/mL Activin A (AA) in RPMI (Cellgro) supplemented with B27 minus insulin, 2 mM GlutaMAX, 1× NEAA and 1× Pen/Strep for 3 days (RB27-INS). […]

hESC-SAN cells = experiment: Ca2+-flux assay (calcium imaging) in hESC-SAN cells; type: cell-based, human; details: 1 μM ivabradine, recordings after 5 min vs baseline
Protocol: (§1) FIG. 2. Functional characterization of hPSC-SAN cells. a, Immunofluorescent co-staining of GFP with pacemaker-associated transcription factors (ISL1, TBX5 and NKX2.5) and ion channels (HCN4, Cav3.1, Cav1.3 and Cx30.2) in cells differentiated to day 30 or day 60. Scale bar=200 μM. b, qRT-PCR analysis using samples from GFP^+ (G+) or mCherry^+ (Ch+) cells at day 25 or day 45. n=3 independent experiments. Fold-change was normalized to undifferentiated hESC. c, Schematic for co-culture of hESC-derived ANs expressing eYFP-channelrhodopsin-2 with either hPSC-SAN or hESC-V; d, Immunofluorescence (left) and electron microscopy images (right) of hESC-AN and hPSC-SAN after 12 weeks of co-culture. Scale bar: 100 μM and 1 μM, respectively; e, Basal release of catecholamine was analyzed using an ELISA kit for AN alone, AN+hES-SAN and AN+hES-V conditions after 8 weeks of co-culture. n=3 independent experiments. f, Representative image of averaged action potentials recorded from an individual hPSC-SAN (left) and distribution (right) of dV/dtmax, APD30 and APD90 recorded used day 30 cells; g, Quantitative analysis of day 30 hPSC-SAN function in response to 1 μM ivabradine. Fold change in calcium transient amplitude (deltaF/F0) of hPSC-SAN or hESC-V cells before and after treatment with ivabradine (n=22 for hESC-SAN and =17 for hESC-V). *p<0.05 **p<0.01. t-test. Data are mean±s.e.m. […]

[2] = test system: hESC-derived ventricular myocytes (hESC-V); experiment: Ca2+-flux assay (calcium imaging) in hESC-derived ventricular myocytes; type: cell-based, human; details: cardiomyocyte (hESC-V) cultures, 1 μM ivabradine, recordings after 5 min vs baseline
Protocol: as §1

[3] = test system: hPSC-SAN cells differentiated from 48 distinct iPSC lines; experiment: DOXO sensitivity of hPSC-SAN cells differentiated from 48 iPSC lines (cleaved caspase-3 / ISL1 staining); type: cell-based, human; details: 0.16 μM DOXO, 3 days
Protocol: FIG. 4. […] Data are mean±s.e.m. Data were normalized to non-DOXO treated cells.
To identify genetic variation that associates with the sensitivity of pacemaker cells to DOXO-induced toxicity, we performed an unbiased screen using a library of hPSC-SAN cells differentiated from 48 distinct iPSC lines. Cells differentiated for 35 days were treated with 0.16 μM DOXO for 3 days. Due to the lack of a robust antibody to SHOX2, an antibody recognizing ISL1 that is co-expressed with SHOX2:GFP (FIG. 2a), was used to identify hPSC-SAN cells that co-stain for cleaved caspase-3, as an assay for cytotoxicity. […] We identified 14 “high-sensitive” iPSC lines that generate hPSC-SAN cells displaying DOXO-induced apoptosis rates greater than 4-fold compared to DMSO-treated cells (FIG. 4b). To test if this platform can be applied toward in vitro pharmacogenomics, the iPSC clones were sequenced at several genomic regions harboring known SNPs associated with increased DOXO-mediated cardiotoxicity, including rs1056892, rs2229774 and rs885004 (in or near the genes CBR3, RARG and SLC28A3, respectively). 10 out of the 14 high-sensitive iPSC lines harbored one of these 3 SNPs (FIG. 4c). All 4 of the lines carrying the risk allele of rs1056892 generated hPSC-SAN cells with more than 4-fold increased toxicity. This is consistent with findings that CBR3 is expressed in heart tissue and functions for drug metabolism.

[4] = cited from earlier work
[5] = test system: SHOX2:GFP-; MHC6:mCherry+ cardiomyocytes; details: 0.16 μM DOXO, 3 days, day 35 cardiomyocytes
Protocol: (§2) FIG. 4. Pharmacogenetics and drug discovery for doxorubicin-mediated acute cell toxicity using hPSC-SAN cells. a, Relative cell toxicity of hESC-SAN and hESC-V cells upon DOXO treatment based on immunostaining of antibody against cleaved-caspase3. The fold change was calculated by dividing the percentage of cleaved caspase-3^+ cells in GFP^+ or mCherry^+ cells in the DOXO-treated condition by the percentage of cleaved caspase-3^+ cells in GFP^+ or mCherry^+ cells in the DMSO-treated condition (n=10); b, Sensitivity of day 30 hiPSC-SAN cells derived from 48 hiPSC lines upon DOXO treatment. 48 hiPSC lines were differentiated toward SAN-like cells and split into two equal samples, which were treated with 0.16 μM doxorubicin or DMSO for 3 days. The fold change was calculated by dividing the percentage of cleaved caspase-3^+ cells in ISL1^+ cells in the DOXO-treated condition by the percentage of cleaved caspase-3^+ cells in ISL1^+ cells in the DMSO-treated condition. […] Data are mean±s.e.m. Data were normalized to non-DOXO treated cells.

[6] = test system: SHOX2:GFP+ hPSC-SAN cells; experiment: DOXO toxicity, cleaved caspase3+ cells, in hPSC-SAN cells; type: cell-based, human; details: 0.16 μM DOXO, 3 days, day 35 pacemaker-like cells
Protocol: as §2

HCN4+ SAN cells = details: mouse, in vivo
Protocol: FIG. 12. […] Immunofluorescence of intact atria isolated from Doxorubicin (two IP injections of 10 mg/kg at 3 day intervals) treated mice euthanized 9 days after initial treatment. Cell death (caspase 3, green) was analyzed in either myocardial (cTroponin, blue) or SAN tissue (HCN4, red).
FIG. 13. […] Contractions of intact atria isolated from vehicle (left panels) or Doxorubicin (right panels) treated mice (30 sec recordings;) x axis=[…]. […] Quantification of contraction rhythmicity of hearts was calculated by the coefficient of variance (COV)=std dev of peak to peak contraction time/average peak to peak contraction time.
C57BL/6 mice were treated with 20 mg/kg Doxorubicin by intraperitoneal injection.

[7] = 1 uM doxorubicin+20 μM Physcion, 3 hrs

With `COc1cc(O)c2c(c1)C(=O)c1cc(C)cc(O)c1C2=O` [Physcion, physcion] the “tumor burden / growth (tumor wt. and volume), single agent” value (A549 xenograft tumors) was “did not affect tumor growth”, the “effect on chemotherapeutic effects of Doxorubicin in vivo” value (A549 xenograft tumors; Physcion plus Doxorubicin, 4 mg/kg each) was “did not block; also recorded: did not inhibit the chemotherapeutic effects of Doxorubicin” and the “effective dose to rescue DOXO-induced cell toxicity” value (hPSC-SAN cells; hPSC-SAN cells, 0.16 μM DOXO, 3 days) was 10 to 20 µM. The “toxicity levels in hPSC-SAN cells from sensitive iPSC lines” value (hPSC-SAN cells; three most sensitive iPSC lines, DOXO with 10 μM Physcion vs without) was “significant decrease in toxicity levels”, the “doxorubicin-induced SAN cell death of explants” value (murine SAN; [7]) was “blocks” and the “doxorubicin-induced arrhythmic contractility of explants” value (murine SAN; [7]) was “blocks”. For the same molecule, the “contraction rhythmicity of explants (COV)” value (murine SAN; 1.5 μM Doxorubicin+20 μM Physcion) was “regained rhythmic contractions with minimal variance in periods between contractions”, the “chemotherapeutic effects of Physcion alone” value [1] was “does not exhibit chemotherapeutic effects” and the “effect on chemotoxic effects of Doxorubicin” value ([1]; Physcion as high as 50 μM, varying doses of Doxorubicin) was “did not block; also recorded: did not inhibit”.
For `Nc1cc(F)ccc1NC(=O)c1ccc(CNC(=O)/C=C/c2cccnc2)cc1` [chidamide], the “percentage of GFP+ cells” value (SHOX2:GFP+ cells) was roughly 50%.
With `COc1cc2c(cc1OC)CC(=O)N(CCCN(C)C[C@H]1Cc3cc(OC)c(OC)cc31)CC2` [ivabradine, Ivabradine] the “contractions and calcium activity” value (hESC-SAN cells) was “significant reduction” and the “contractions and calcium activity” value [2] was “no significant difference”.
For `COc1cccc2c1C(=O)c1c(O)c3c(c(O)c1C2=O)C[C@@](O)(C(=O)CO)C[C@@H]3O[C@H]1C[C@H](N)[C@H](O)[C@H](C)O1` [Doxorubicin], the “DOXO-induced apoptosis rate compared to DMSO-treated cells” value ([3]; 14 high-sensitive iPSC lines) was “greater than 4 fold”, the increased toxicity ([3]; all 4 lines carrying the risk allele of rs1056892) was “greater than 4 fold” and the “percentage of cleaved caspase3+ ISL1 cells following DOXO” value ([3]; hPSC-SAN cells from all 48 iPSC lines) was “at least some increase”. For the same molecule, the sub-clinical systolic dysfunction ([4]; of treated patients) was roughly 40%, the DOXO-induced cardiomyopathy ([4]; treated patients) was 10-20% and the “tumor burden / growth (tumor wt. and volume), single agent” value (A549 xenograft tumors) was “reduction in tumor wt. and volume”. The “cell death (percentage of cleaved caspase3+ cells)” value [5] was “no significant increase in cell death”, the “cytotoxicity (percentage of cleaved caspase3+ cells)” value [6] was “significant cytotoxicity” and the “variance in the time between contractions (coefficient of variance, COV)” value (HCN4+ SAN cells) was “significantly higher variance in the time between contractions”. The “SAN cell death in atrial explants” value (murine SAN; 1 μM doxorubicin, 3 hrs) was “localized SAN cell death”, the “contractility of atrial explants” value (murine SAN; 1 μM doxorubicin, 3 hrs) was “irregular contractility” and the “contraction rhythmicity of explants (COV)” value (murine SAN; 1.5 μM Doxorubicin) was “irregular contractions marked by significantly higher variance in the time between contractions”.
